Target: UGT720-269-1 (Siraitia grosvenorii, UniProt P0DO66)
Details: 1 mM UDPG, 10 mM MgCl2, 40 °C; crude enzyme in screening assay

Sequence of UGT720-269-1 (P0DO66 whole entry): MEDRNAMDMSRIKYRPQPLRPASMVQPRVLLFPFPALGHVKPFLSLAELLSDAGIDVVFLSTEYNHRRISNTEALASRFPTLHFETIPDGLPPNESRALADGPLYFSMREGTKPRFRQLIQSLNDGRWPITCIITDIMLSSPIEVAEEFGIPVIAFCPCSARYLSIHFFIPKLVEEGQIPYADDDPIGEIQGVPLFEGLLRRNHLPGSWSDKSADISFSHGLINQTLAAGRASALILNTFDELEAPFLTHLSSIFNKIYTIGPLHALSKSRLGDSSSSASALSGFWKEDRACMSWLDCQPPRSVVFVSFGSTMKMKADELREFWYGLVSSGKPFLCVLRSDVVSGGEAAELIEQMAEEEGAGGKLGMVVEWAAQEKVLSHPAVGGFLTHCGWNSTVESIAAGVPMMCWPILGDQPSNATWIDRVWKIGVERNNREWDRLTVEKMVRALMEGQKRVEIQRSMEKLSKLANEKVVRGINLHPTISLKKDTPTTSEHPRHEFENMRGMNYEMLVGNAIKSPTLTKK

For C[C@H](CC[C@@H](O)C(C)(C)O)[C@H]1CC[C@@]2(C)[C@@H]3CC=C4[C@@H](CC[C@H](O)C4(C)C)[C@]3(C)[C@H](O)C[C@]12C [mogrol], which HPLC product analysis is on record?
Its HPLC product analysis is “low catalytic property of UGT720-269-1 in the sequential glycosylation of mogrol to IIE”.

Source: publication PMC9557039 (iScience, 2022)
